Active and inactive are the calls of the source. The rule behind the calls is not given here.
Key:
[1] = target: Telomerase reverse transcriptase (Homo sapiens, UniProt O14746); test: Inhibition of telomerase activity in human HL-60 cells incubated for 96 hrs by TRAP-PCR assay; format: cell-based
CT26 = test: cells; conditions: Mus musculus, CT26, 96 h
Description: Antiproliferative activity against mouse CT26 cells assessed as inhibition of cell growth measured after 96 hrs by CCK-8 assay

[2] = target: Telomerase Cajal body protein 1 (Homo sapiens) (UniProt Q9BUR4); test: Thermal stabilization of TCAB1 in human HL-60 cells at 10 uM incubated for 30 mins by CETSA; format: cell-based
HL-60 = test: cells; conditions: Homo sapiens, HL-60, 96 h
Description: Antiproliferative activity against human HL-60 cells assessed as inhibition of cell growth measured after 96 hrs by CCK-8 assay

[3] = target: Telomerase Cajal body protein 1 (Homo sapiens) (UniProt Q9BUR4); test: Inhibition of hTERT binding to TCAB1 in human HL-60 cells at 10 uM incubated for 48 hrs by Co-IP analysis; format: cell-based
[4] = Cytotoxicity against human GES1 cells assessed as inhibition of cell growth measured after 96 hrs by CCK-8 assay; format: toxicity, cell-based

Sequence of Telomerase reverse transcriptase (O14746 whole entry): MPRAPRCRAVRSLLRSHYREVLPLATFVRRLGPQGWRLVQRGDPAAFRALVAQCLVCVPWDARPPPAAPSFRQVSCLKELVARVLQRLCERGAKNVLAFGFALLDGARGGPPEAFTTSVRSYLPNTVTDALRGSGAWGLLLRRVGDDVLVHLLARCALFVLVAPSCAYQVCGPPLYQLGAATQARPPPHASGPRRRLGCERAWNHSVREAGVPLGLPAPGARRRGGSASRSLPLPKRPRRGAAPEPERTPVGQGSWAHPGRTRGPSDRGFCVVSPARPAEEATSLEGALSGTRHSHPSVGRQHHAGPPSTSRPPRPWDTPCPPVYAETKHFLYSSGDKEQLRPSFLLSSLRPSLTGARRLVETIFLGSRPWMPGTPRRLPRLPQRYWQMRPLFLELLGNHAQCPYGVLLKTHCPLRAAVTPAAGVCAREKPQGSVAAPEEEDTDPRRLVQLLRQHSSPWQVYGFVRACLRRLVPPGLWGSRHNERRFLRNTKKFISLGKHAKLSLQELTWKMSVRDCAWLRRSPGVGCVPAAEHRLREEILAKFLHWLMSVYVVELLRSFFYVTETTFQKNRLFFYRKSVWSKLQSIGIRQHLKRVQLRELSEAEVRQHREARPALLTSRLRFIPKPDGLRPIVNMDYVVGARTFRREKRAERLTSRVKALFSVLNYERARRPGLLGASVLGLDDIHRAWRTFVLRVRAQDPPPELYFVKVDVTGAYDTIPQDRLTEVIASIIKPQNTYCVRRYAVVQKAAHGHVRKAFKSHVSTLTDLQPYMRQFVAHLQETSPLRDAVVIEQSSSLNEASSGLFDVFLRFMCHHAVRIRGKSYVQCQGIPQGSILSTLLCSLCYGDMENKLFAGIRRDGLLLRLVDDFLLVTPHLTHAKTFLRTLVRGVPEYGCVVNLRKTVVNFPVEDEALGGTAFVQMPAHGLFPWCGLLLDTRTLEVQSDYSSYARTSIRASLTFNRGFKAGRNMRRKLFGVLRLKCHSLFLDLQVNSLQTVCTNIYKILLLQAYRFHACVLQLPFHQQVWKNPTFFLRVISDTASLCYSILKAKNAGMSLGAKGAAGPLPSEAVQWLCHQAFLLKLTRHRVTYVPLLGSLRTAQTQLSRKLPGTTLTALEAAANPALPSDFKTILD
Sequence of Telomerase Cajal body protein 1 (Homo sapiens) (Q9BUR4 whole entry): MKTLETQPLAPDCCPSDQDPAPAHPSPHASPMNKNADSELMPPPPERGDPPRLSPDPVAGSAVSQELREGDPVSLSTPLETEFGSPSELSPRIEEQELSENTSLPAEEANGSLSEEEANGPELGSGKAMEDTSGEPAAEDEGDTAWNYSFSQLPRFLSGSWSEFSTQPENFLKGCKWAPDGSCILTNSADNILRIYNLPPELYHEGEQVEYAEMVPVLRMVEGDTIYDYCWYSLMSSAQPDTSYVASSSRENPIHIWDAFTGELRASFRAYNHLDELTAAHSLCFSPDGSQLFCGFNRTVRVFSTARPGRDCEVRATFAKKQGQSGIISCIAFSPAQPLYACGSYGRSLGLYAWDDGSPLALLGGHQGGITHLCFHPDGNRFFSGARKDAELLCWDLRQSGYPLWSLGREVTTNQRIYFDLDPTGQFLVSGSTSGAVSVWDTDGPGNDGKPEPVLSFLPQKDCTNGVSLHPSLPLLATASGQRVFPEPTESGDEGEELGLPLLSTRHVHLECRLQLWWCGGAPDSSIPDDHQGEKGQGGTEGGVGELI

| IC50 [1] | Structure (SMILES) | further results |
| --- | --- | --- |
| > 10 µM | CC(=O)Nc1ccc(/C=C2\C=C(C(O)c3ccc(NC(C)=O)cc3)c3ccccc32)cc1 (configuration not stated) | – |
| > 10 µM | CCOC(=O)c1cccc(NC(=O)CSc2nnc(-c3cccnc3)n2-c2ccc(OC)cc2)c1 | – |
| > 10 µM | Cc1ccc2nc(NCCO)c(/C=C3\SC(=S)N(Cc4ccc5c(c4)OCO5)C3=O)c(=O)n2c1 | – |
| > 10 µM | O=C(C1=C(O)C(=O)N(CCOCCO)C1c1cccc(O)c1)c1cccs1 (configuration not stated) | – |
| > 10 µM | CCOc1ccc(N2C(=O)CC(N(CCc3ccc(S(N)(=O)=O)cc3)C(C)=O)C2=O)cc1 (configuration not stated) | – |
| > 10 µM | O=C(CCS(=O)(=O)c1nc(-c2ccccc2)cc(C(F)(F)F)n1)Nc1cccnc1Cl | – |
| > 10 µM | CCOc1cc(C2NC(=O)N(C)C(C)=C2C(=O)OCC2CCCO2)cc(Cl)c1O (configuration not stated) | – |
| > 10 µM | CCCc1cc(=O)oc2cc(OCC(=O)Nc3ccc(S(N)(=O)=O)cc3)c(Cl)cc12 | – |
| – | COC(=O)C1=C(C)N(CC2CCCO2)C(=O)/C1=C\c1ccc(OCC(=O)NC(C)C)cc1 (configuration not stated) | IC50 (CT26): 26.9 µM; Activity [2]: Active; IC50 (HL-60): 156 µM; inhibition [3]: inactive; IC50 at 96 h [4]: > 1000 µM |
| > 10 µM | COc1ccc(C2C(C(=O)Nc3ccc(Cl)cc3)=C(C)N=C3N=C(CCCO)NN32)c(OC)c1 (configuration not stated) | – |
| > 10 µM | COc1ccc(C(=O)C2=C(O)C(=O)N(CCO)C2c2ccc(C)cc2)cc1 (configuration not stated) | – |
| > 10 µM | CCn1c(CN2NC(C)=CCC2=O)nnc1SCC(=O)Nc1ccc(S(N)(=O)=O)cc1 | – |
| > 10 µM | CCOc1cc(/C=C2/C(=N)N3N=C(C)SC3=NC2=O)ccc1OCCOc1cccc(OC)c1 | – |
| > 10 µM | CCC(CO)NS(=O)(=O)c1cccc2c(S(=O)(=O)NC(CC)CO)cccc12 (configuration not stated) | – |
| > 10 µM | CCOc1cc(C2C(C#N)=C(N)Oc3n[nH]c(C(C)(C)C)c32)ccc1OCCN1CCOCC1 (configuration not stated) | – |
| – | O=C(C1=C(O)C(=O)N(Cc2ccco2)C1c1cccc(O)c1)c1ccc2c(c1)OCCO2 (configuration not stated) | IC50 (CT26): > 200 µM; Activity [2]: Active; IC50 (HL-60): > 200 µM; inhibition [3]: inactive; IC50 at 96 h [4]: > 1000 µM |
| 0.091 µM | C/C(=C\C(=O)Nc1ccccc1C(=O)O)c1ccc2ccccc2c1 | IC50 (CT26): 42.9 µM; IC50 (HL-60): 47.8 µM; IC50 at 96 h [4]: 206 µM |
| > 10 µM | COc1ccc(-c2ccc(S(=O)(=O)NCCO)cc2)c(S(=O)(=O)NCCO)c1 | – |
| – | C#CCOc1ccc(/C=C2\SC(Nc3ccc(OCC)cc3)=C(C(=O)OCC)C2=O)cc1OC | IC50 (CT26): 46.3 µM; Activity [2]: Active; IC50 (HL-60): > 200 µM; inhibition [3]: inactive; IC50 at 96 h [4]: > 1000 µM |
| > 10 µM | CCOc1cc(C2NC(=O)NC(C)=C2C(=O)OCc2ccc3c(c2)OCO3)ccc1O (configuration not stated) | – |
| > 10 µM | CC(=O)c1cccc(/N=c2\scc(-c3ccc(S(=O)(=O)N4CCOCC4)cc3)n2CCO)c1 | – |
| > 10 µM | CCOC(=O)C1=C(C)N=c2s/c(=C\c3ccc(O)c(OC)c3)c(=O)n2C1c1ccc(OCC)cc1 (configuration not stated) | – |

Reference: ChEMBL document CHEMBL5579876, “Small Molecules Blocking the Assembly of TCAB1 and Telomerase Complexes: Lead Discovery and Biological Activity” (ACS Med Chem Lett, 2024)
